Measurements as given in US10875851B2, “Factor XIIa inhibitors” (Merck Sharp & Dohme Corp., priority 2016, dated 2020).

molecular target: human Factor XIIa (Homo sapiens (Human), UniProt P00748); assay: Factor XIIa Assay; format: biochemical; conditions: purified human Factor XIIa 500 pM; substrate n-Acetyl-Lys-Pro-Arg-AFC 100 μM; pH 7.4; read-out: FXIIa IC50
Method in brief: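 Purified human FXIIa at 500 pM final with 100 μM n-Acetyl-Lys-Pro-Arg-AFC in 50 mM HEPES, 150 mM NaCl, 5 mM CaCl2, 0.1% PEG 8000, pH 7.4, at room temperature or 37° C. Initial fluorogenic hydrolysis rates measured after enzyme–inhibitor equilibration; IC50 taken where Vi=Vo/2.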

Chain of human Factor XIIa (P00748 373-615): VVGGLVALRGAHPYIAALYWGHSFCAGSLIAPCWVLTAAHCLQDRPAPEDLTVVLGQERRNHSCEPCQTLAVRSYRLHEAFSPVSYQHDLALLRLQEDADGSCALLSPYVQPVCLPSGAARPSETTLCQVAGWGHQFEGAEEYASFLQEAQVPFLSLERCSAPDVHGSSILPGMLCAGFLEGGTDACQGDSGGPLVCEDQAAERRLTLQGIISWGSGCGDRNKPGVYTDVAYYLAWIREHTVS

Row | IC50 [nM] | SMILES
1 | 2.5 | CC[C@@H](C)N[C@H](CCCCN1CCCCC1)C(=O)N1CCN(C2=N[C@@H](C)[C@H](c3ccccc3)O2)C[C@H]1C(=O)NCc1cccc(Cl)c1 [Example 170, (2S)-N-(3-chlorobenzyl)-4-[(4S,5S)-4-methyl-5-phenyl-4,5-dihydro-1,3-oxazol-2-yl]-1-{N-[(1R)-1-methylpropyl]-6-piperidin-1-yl-D-norleucyl}piperazine-2-carboxamide]
2 | 44.1 | CN(C)CCCC[C@H](C(=O)N1CCN(C2=NC(C)(C)C(c3ccccc3)O2)C[C@H]1C(=O)NCc1cc2cnccc2s1)N(C)C (stereo partly drawn) [Example 147, (2S)-4-(4,4-dimethyl-5-phenyl-4,5-dihydro-1,3-oxazol-2-yl)-1-(N^2,N^2,N^6,N^6-tetramethyl-D-lysyl)-N-(thieno[3,2-c]pyridin-2-ylmethyl)piperazine-2-carboxamide]
3 | 29 | C[C@@H]1N=C(N2CCN(C(=O)[C@@H](CCCCN3CCCCC3)NC3CCC(CN)CC3)[C@H](C(=O)NCc3cccc(Cl)c3)C2)O[C@H]1c1ccccc1 (stereo partly drawn) [Example 176, (2S)-1-{N-[4-(aminomethyl)cyclohexyl]-6-piperidin-1-yl-D-norleucyl}-N-(3-chlorobenzyl)-4-[(4S,5S)-4-methyl-5-phenyl-4,5-dihydro-1,3-oxazol-2-yl]piperazine-2-carboxamide]
4 | 27.4 | CC(C)N[C@H](CCCCN1CCCCC1)C(=O)N1CCN(C2=NC(C)(C)C(c3ccccc3)O2)C[C@H]1C(=O)NCc1cc2cnccc2s1 (stereo partly drawn) [Example 159, (2S)-4-(4,4-dimethyl-5-phenyl-4,5-dihydro-1,3-oxazol-2-yl)-1-[N-(1-methylethyl)-6-piperidin-1-yl-D-norleucyl]-N-(thieno[3,2-c]pyridin-2-ylmethyl)piperazine-2-carboxamide]
5 | 9.2 | CN(C)CCCC[C@@H](NC1CCC2(CC1)CCN(Cc1ccccc1)C2)C(=O)N1CCN(C2=NC(C)(C)CO2)C[C@H]1C(=O)NCc1cccs1 (stereo partly drawn) [Example 141, (2S)-1-[N^2-(2-benzyl-2-azaspiro[4.5]dec-8-yl)-N^6,N^6-dimethyl-D-lysyl]-4-(4,4-dimethyl-4,5-dihydro-1,3-oxazol-2-yl)-N-(thiophen-2-ylmethyl)piperazine-2-carboxamide]
6 | 22.8 | C[C@@H]1N=C(N2CCN(C(=O)[C@H](N)CCCCN3CCCCC3)[C@H](C(=O)NCc3cccs3)C2)O[C@H]1c1ccccc1 [Example 164, (2S)-4-[(4S,5S)-4-methyl-5-phenyl-4,5-dihydro-1,3-oxazol-2-yl]-1-(6-piperidin-1-yl-D-norleucyl)-N-(thiophen-2-ylmethyl)piperazine-2-carboxamide]
7 | 34.9 | CN(C)CCCC[C@H](C(=O)N1CCN(C2=NC(C)(C)C(c3ccccc3)O2)C[C@H]1C(=O)NCc1ccc(CN)c(Cl)c1)N(C)C (stereo partly drawn) [Example 149, (2S)-N-[4-(aminomethyl)-3-chlorobenzyl]-4-(4,4-dimethyl-5-phenyl-4,5-dihydro-1,3-oxazol-2-yl)-1-(N^2,N^2,N^6,N^6-tetramethyl-D-lysyl)piperazine-2-carboxamide]
8 | 8.2 | CC(C)N[C@H](CCCCN1CCCCC1)C(=O)N1CCN(C2=N[C@@H](C)[C@H](c3cccc(Br)c3)O2)C[C@H]1C(=O)NCc1cccc(Cl)c1 [Example 168, (2S)-4-[(4S,5S)-5-(3-bromophenyl)-4-methyl-4,5-dihydro-1,3-oxazol-2-yl]-N-(3-chlorobenzyl)-1-[N-(1-methylethyl)-6-piperidin-1-yl-D-norleucyl]piperazine-2-carboxamide]
9 | 0.4 | C[C@@H]1N=C(N2CCN(C(=O)[C@@H](CCCCN(C)C)NC3CCC4(CC3)CCN(Cc3ccccc3)C4)[C@H](C(=O)NCc3cccs3)C2)O[C@H]1c1ccccc1 (stereo partly drawn) [Example 142, (2S)-1-[N^2-(2-benzyl-2-azaspiro[4.5]dec-8-yl)-N^6,N^6-dimethyl-D-lysyl]-4-[(4S,5S)-4-methyl-5-phenyl-4,5-dihydro-1,3-oxazol-2-yl]-N-(thiophen-2-ylmethyl)piperazine-2-carboxamide]
10 | 52.3 | CC1(C)N=C(N2CCN(C(=O)[C@H](N)CCCCN3CCCCC3)[C@H](C(=O)NCc3cccc(Cl)c3)C2)OC1c1ccccc1 (stereo partly drawn) [Example 156, (2S)-N-(3-chlorobenzyl)-4-(4,4-dimethyl-5-phenyl-4,5-dihydro-1,3-oxazol-2-yl)-1-(6-piperidin-1-yl-D-norleucyl)piperazine-2-carboxamide]
11 | 7.4 | COc1cc(CNC(=O)[C@@H]2CN(C3=NC(C)(C)[C@H](c4ccccc4)O3)CCN2C(=O)[C@@H](CCCCN(C)C)N(C)C)ccc1CN [Example 153, (2S)-N-[4-(aminomethyl)-3-methoxybenzyl]-4-[(5S)-4,4-dimethyl-5-phenyl-4,5-dihydro-1,3-oxazol-2-yl]-1-(N^2,N^2,N^6,N^6-tetramethyl-D-lysyl)piperazine-2-carboxamide]
12 | 13 | C[C@@H]1N=C(N2CCN(C(=O)[C@@H](CCCCN)NC3CCC4(CC3)CCN(Cc3ccccc3)C4)[C@H](C(=O)NCc3cccs3)C2)O[C@H]1c1ccccc1 (stereo partly drawn) [Example 129, (2S)-1-[N^2-(2-benzyl-2-azaspiro[4.5]dec-8-yl)-D-lysyl]-4-[(4S,5S)-4-methyl-5-phenyl-4,5-dihydro-1,3-oxazol-2-yl]-N-(thiophen-2-ylmethyl)piperazine-2-carboxamide]
13 | 52.4 | CN(C)CCCC[C@H](C(=O)N1CCN(C2=NC(C)(C)C(c3ccccc3)O2)C[C@H]1C(=O)NCc1cccc(Cl)c1)N(C)C (stereo partly drawn) [Example 139, (2S)-N-(3-chlorobenzyl)-4-(4,4-dimethyl-5-phenyl-4,5-dihydro-1,3-oxazol-2-yl)-1-(N^2,N^2,N^6,N^6-tetramethyl-D-lysyl)piperazine-2-carboxamide]

Row | SMILES | IC50 [nM]
14 | COc1cc(CNC(=O)[C@@H]2CN(C(=O)Oc3ccc4ccccc4c3Cl)CCN2C(=O)[C@@H](CCCCN(C)C)NC2CCC(CN)CC2)ccc1CN (stereo partly drawn) [Example 92, 1-chloronaphthalen-2-yl (3S)-4-{N^2-[4-(aminomethyl)cyclohexyl]-N^6,N^6-dimethyl-D-lysyl}-3-{[4-(aminomethyl)-3-methoxybenzyl]carbamoyl}piperazine-1-carboxylate] | 2.9
15 | O=C(NCc1cccs1)[C@@H]1CN(C(=O)Oc2cccc3cncnc23)CCN1C(=O)[C@@H](CC1CCCCC1)NC1CCCCC1 [Example 18, quinazolin-8-yl (3S)-4-(N,3-dicyclohexyl-D-alanyl)-3-[(thiophen-2-ylmethyl)carbamoyl]piperazine-1-carboxylate] | 4.5
16 | Cc1ccc(OC(=O)N2CCN(C(=O)[C@H](N)CCCCN(C)C)[C@H](C(=O)NCc3cccs3)C2)c(Cl)c1C [Example 98, 2-chloro-3,4-dimethylphenyl (3S)-4-(N^6,N^6-dimethyl-D-lysyl)-3-[(thiophen-2-ylmethyl)carbamoyl]piperazine-1-carboxylate] | 7.2
17 | Cc1ccc(OC(=O)N2CCN(C(=O)[C@@H](CCCCN(C)C)NC3CCC4(CC3)CCN(Cc3ccccc3)C4)[C@H](C(=O)NCc3cccs3)C2)c(Cl)c1C (stereo partly drawn) [Example 108, 2-chloro-3,4-dimethylphenyl (3S)-4-[N^2-(2-benzyl-2-azaspiro[4.5]dec-8-yl)-N^6,N^6-dimethyl-D-lysyl]-3-[(thiophen-2-ylmethyl)carbamoyl]piperazine-1-carboxylate] | 0.3
18 | NCc1ccc(OC(=O)N2CCN(C(=O)[C@@H](CC3CCCCC3)NC3CCC4(CC3)CCN(Cc3ccccc3)C4)[C@H](C(=O)NCc3cccs3)C2)c2ccccc12 (stereo partly drawn) [Example 59, 4-(aminomethyl)naphthalen-1-yl (3S)-4-[N-(2-benzyl-2-azaspiro[4.5]dec-8-yl)-3-cyclohexyl-D-alanyl]-3-[(thiophen-2-ylmethyl)carbamoyl]piperazine-1-carboxylate] | 4.6
19 | O=C(NCc1cccs1)[C@@H]1CN(C(=O)Oc2cccc3cccnc23)CCN1C(=O)[C@@H](CC1CCCCC1)NC1CCCCC1 [Example 30, quinolin-8-yl (3S)-4-(N,3-dicyclohexyl-D-alanyl)-3-[(thiophen-2-ylmethyl)carbamoyl]piperazine-1-carboxylate] | 5.8
20 | CCS(=O)(=O)N1CCC([C@@H](NC2CCCCC2)C(=O)N2CCN(C(=O)Oc3ccccc3Cl)C[C@H]2C(=O)NCc2cccs2)CC1 [Example 61, 2-chlorophenyl (3S)-4-{(2R)-2-(cyclohexylamino)-2-[1-(ethylsulfonyl)piperidin-4-yl]acetyl}-3-[(thiophen-2-ylmethyl)carbamoyl]piperazine-1-carboxylate] | 4.2
21 | COc1cc(CNC(=O)[C@@H]2CN(C(=O)Oc3cccc4ccccc34)CCN2C(=O)[C@@H](CC2CCCCC2)NC2CCC3(CC2)CCN(Cc2ccccc2)C3)ccc1CN (stereo partly drawn) [Example 28, naphthalen-1-yl (3S)-3-{[4-(aminomethyl)-3-methoxybenzyl]carbamoyl}-4-[N-(2-benzyl-2-azaspiro[4.5]dec-8-yl)-3-cyclohexyl-D-alanyl]piperazine-1-carboxylate] | 3.9
22 | Cc1ccc(OC(=O)N2CCN(C(=O)[C@@H](CCCCNC(C)C)NC3CCCCC3)[C@H](C(=O)NCc3cccs3)C2)c(Cl)c1C [Example 102, 2-chloro-3,4-dimethylphenyl (3S)-4-[N^2-cyclohexyl-N^6-(1-methylethyl)-D-lysyl]-3-[(thiophen-2-ylmethyl)carbamoyl]piperazine-1-carboxylate] | 0.7
23 | O=C(NCc1cccs1)[C@@H]1CN(C(=O)Oc2ccc(F)c3cccnc23)CCN1C(=O)[C@@H](CC1CCCCC1)NC1CCCCC1 [Example 32, 5-fluoroquinolin-8-yl (3S)-4-(N,3-dicyclohexyl-D-alanyl)-3-[(thiophen-2-ylmethyl)carbamoyl]piperazine-1-carboxylate] | 5.2
24 | CC(C)(C)C(=O)N1CCC([C@@H](NC2CCCCC2)C(=O)N2CCN(C(=O)Oc3ccccc3Cl)C[C@H]2C(=O)NCc2cccs2)CC1 [Example 69, 2-chlorophenyl (3S)-4-{(2R)-2-(cyclohexylamino)-2-[1-(2,2-dimethylpropanoyl)piperidin-4-yl]acetyl}-3-[(thiophen-2-ylmethyl)carbamoyl]piperazine-1-carboxylate] | 8.4
